Results published in US5756423A, “Method of controlling plants by inhibition of farnesyl pyrophosphate synthase” (Zeneca Limited, priority 1997, dated 1998).
Like-named read-outs stand apart in the source and are kept apart here.

Key:
[1] = tested on: green foxtail (Setaria viridis) (SETVI); assay: post-emergent herbicidal test, green foxtail; assay type: in vivo
Excerpt: (§1) Seeds of several different weed species were planted in sandy loam soil containing only trace organic matter. Propagules were sown in individuals rows using one species per row across the width of an aluminum flat (19.5×9.5×6 cm). The grass weeds planted were green foxtail (Setaria viridis) ("SETVI"), wild oat (Avena fatua) ("AVEFA"), barnyard grass (Enchinochloa crusgalli) ("ECHCG"). Broadleaf weeds utilized were wild mustard (Brassica kaber), also known as Sinapis arvensis, ("SINAR"), velvetleaf (Abutilon theophrasti) ("ABUTH") and morningglory (Ipomoea spp.) ("IPOSS"). Additionally, yellow nutsedge (Cyperus esculentus) ("CYPES"), nutlets were sown. Seeding depths ranged from 1.0 to 1.5 cm and plant densities ranged from 3 to 25 plants per row depending on individual plant species.
(§2) The flats were placed into a greenhouse and watered overhead by sprinkling. The greenhouse environmental systems provided the plants with natural and artificial (via metal halide lamps) lighting to attain 14 hours of light per day. Day and night temperatures were maintained at 29° and 21° C. respectively. The plants were grown for 10 to 12 days (or to the appropriate growth stage) prior to compound application. Grasses were sprayed at a 3 to 4 leaf stage and broadleaves at a 1 to 2 leaf stage. Yellow nutsedge was 5 to 7 cm tall at application.
(§3) Solutions of the test compounds were prepared by weighing out 18.8 and 74.7 mg for 1 and 4 kg/ha applications respectively, of the test compound into a 60 ml wide-mouth bottle, then dissolving the compound in 14.0 ml of deionized water containing 0.5% v/v Tween 20' (polyoxyethylene sorbitan monolaurate emulsifier) as a surfactant. Additional solvents, not exceeding 2 ml (15% of spray volume), were used if needed to dissolve the compound.
(§4) The plants were sprayed inside an enclosed linear spray table with the nozzle set at 30.5 cm (12 inches) above the foliage.
(§5) Treated plants were then returned to a greenhouse and watered daily without wetting the foliage.
(§6) The degree of weed control was evaluated 17-21 days after application and recorded as percentage of control as compared to the growth of the same species in an untreated control flat of the same. Percent control is the total injury to the plants due to all factors including: inhibited emergence, stunting, malformation, chlorosis and other types of plant injury. The control ratings range from 0 to 100 percent, where 0% represents no effect with growth equal to the untreated control and where 100% represents complete kill.

[2] = tested on: farnesyl pyrophosphate synthase in daffodil chromoplasts; assay: inhibition of farnesyl pyrophosphate synthase in daffodil chromoplasts (14C-isopentenyl pyrophosphate incorporation); assay type: biochemical, Narcissus pseudonarcissus; settings: unit inferred, IC50 values in nM, read-out: IC50
Method: The IC50 value may be determined as follows. Daffodil chromoplasts are diluted to a volume of 500 microliters in a buffer containing 0.5M sucrose, 3 mM MgCl2, 1 mM ethylenediaminetetraacetic acid, 20 mM N-tris[hydroxymethyl]methyl-2-aminoethanesulfonic acid, […] N-[2-hydroxyethyl]-piperazine-N'-[2-ethanesulfonic acid], 5 mM L-cysteine, 10 mM sodium fluoride, and 0.1% bovine serum albumin at pH 7.7. The inhibitor to be tested may be dissolved in water other suitable solvent and then added to the reaction mixture. The assay is started by the addition of ^14 C-labeled isopentenyl pyrophosphate (52 Ci/mol) to give a final concentration in the assay of about 3 micromolar. The mixture is incubated at 30° C. with gentle agitation for a period of about 30 min. The reaction may be stopped by the addition of 0.5 mL of saturated NaCl and 2 mL of n-butanol saturated with water. After thorough mixing, the turbid suspensions are centrifuged briefly to separate the layers, and 1 mL of the bright yellow upper butanol layer is added to 10 mL of a suitable scintillation fluid which gives a single phase. The butanol soluble radioactivity is then measured in a scintillation counter.
In addition, the problem of variable quenching differences among different experiments can be essentially eliminated by determining the incorporation of radioactivity relative to controls. Each set of experiments requires two control tubes identical to the test samples except that they contain no inhibitor. One of these is quenched immediately (TO sample) and one is quenched at the end of the normal incubation period (T100 sample).
For each concentration of inhibitor examined the % residual activity is determined from the formula [formula]
Tightly closed daffodil flowers (Narcissus pseudonarcissus) were allowed to open at room temperature. […] Coronae were placed in twice their weight of isolation buffer consisting of 67 mM potassium phosphate, 0.74M sucrose, 5 mM MgCl2, and 0.2% polyvinyl-pyrrolidone at pH 7.6 and were disrupted by 30 seconds of homogenization at high speed in a Waring-type blender. The mixture was filtered through several layers of cheesecloth and 2 layers of 100 micron nylon mesh, and the resulting filtrate was centrifuged at 1000×g for 10 minutes. The pellet was discarded and supernatant was centrifuged at 22,000×g for 20 minutes. […] This solution was centrifuged at 22,000×g for 20 minutes to give orange pellets which were suspended in a buffer of 100 mM tris(hydroxymethyl)aminomethane at pH 7.6 containing 5mM MgCl2 and 2 mM dithiothreitol (1 ml per 10 coronae). This solution was frozen in liquid nitrogen and then stored at -80° C.
Thawed daffodil chromoplasts (100-150 microliters) were diluted to a final volume of 500 microliters in a buffer containing 0.5M sucrose, 3 mM MgCl2, 1 mM ethylenediaminetetraacetic acid, 10 mM N-[2-hydroxyethyl]piperazine-N^1 -[2-ethanesulfonic acid], 5 mM L-cysteine, 10 mM sodium fluoride, and 0.1% bovine serum albumin at pH 7.7. The inhibitor to be tested was dissolved in water or other suitable solvent and was added to the reaction mixture. The assay was started by the addition of ^14 C-labeled isopentenyl pyrophosphate (52 Ci/mol) to give a final concentration in the assay of about 3 micromolar. The mixture was incubated at 30° C. with gentle agitation for a period of about 30 minutes. The reaction was stopped by the addition of 0.5 mL of saturated NaCl and 2 mL of n-butanol saturated with water. After thorough mixing, the turbid suspensions were centrifuged briefly to separate the layers, and 1 mL of the bright yellow upper butanol layer was added to 10 mL of a suitable scintillation fluid which gave a single phase. The butanol soluble radioactivity was then measured in a scintillation counter. Each set of experiments required two control tubes identical to the test samples except that they contain no inhibitor.

[3] = tested on: barnyard grass (Enchinochloa crusgalli) (ECHCG); assay: post-emergent herbicidal test, barnyard grass; assay type: in vivo
Excerpt: as §1, §2, §3, §4, §5, §6

[4] = tested on: yellow nutsedge (Cyperus esculentus) (CYPES); assay: post-emergent herbicidal test, yellow nutsedge; assay type: in vivo
Excerpt: as §1, §2, §3, §4, §5, §6

[5] = tested on: velvetleaf (Abutilon theophrasti) (ABUTH); assay: post-emergent herbicidal test, velvetleaf; assay type: in vivo
Excerpt: as §1, §2, §3, §4, §5, §6

[6] = tested on: morningglory (Ipomoea spp.) (IPOSS); assay: post-emergent herbicidal test, morningglory; assay type: in vivo
Excerpt: as §1, §2, §3, §4, §5, §6

[7] = tested on: wild mustard (Brassica kaber), also known as Sinapis arvensis (SINAR); assay: post-emergent herbicidal test, wild mustard; assay type: in vivo
Excerpt: as §1, §2, §3, §4, §5, §6

[8] = tested on: wild oat (Avena fatua) (AVEFA); assay: post-emergent herbicidal test, wild oat; assay type: in vivo
Excerpt: as §1, §2, §3, §4, §5, §6

[9] = Setaria viridis, post-emergence, read-out: SETVI percent control
[10] = Echinochloa crus-galli, post-emergence, read-out: ECHCG percent control
[11] = Cyperus, post-emergence, read-out: CYPES percent control
[12] = Abutilon theophrasti, post-emergence, read-out: ABUTH percent control
[13] = Ipomoea, post-emergence, read-out: IPOSS percent control
[14] = Brassica, post-emergence, read-out: SINAR percent control
[15] = Avena fatua, post-emergence, read-out: AVEFA percent control
[16] = Setaria viridis, post-emergence, post-emergent, 1.0 kg/ha (*), 17-21 days after application, read-out: SETVI percent control
[17] = Echinochloa crus-galli, post-emergence, post-emergent, 1.0 kg/ha (*), 17-21 days after application, read-out: ECHCG percent control
[18] = Cyperus, post-emergence, post-emergent, 1.0 kg/ha (*), 17-21 days after application, read-out: CYPES percent control
[19] = Abutilon theophrasti, post-emergence, post-emergent, 1.0 kg/ha (*), 17-21 days after application, read-out: ABUTH percent control
[20] = Ipomoea, post-emergence, post-emergent, 1.0 kg/ha (*), 17-21 days after application, read-out: IPOSS percent control
[21] = Brassica, post-emergence, post-emergent, 1.0 kg/ha (*), 17-21 days after application, read-out: SINAR percent control
[22] = Avena fatua, post-emergence, post-emergent, 1.0 kg/ha (*), 17-21 days after application, read-out: AVEFA percent control
[23] = post-emergent, 1.0 kg/ha (*), 17-21 days after application

SMILES	IC50 ([2]; Table I)	IC50 ([2]; Table II)	pest or weed control at 1000 g/ha [1, 16]	pest or weed control at 1000 g/ha [3, 17]	pest or weed control at 1000 g/ha [4, 18]	pest or weed control at 1000 g/ha [5, 19]	pest or weed control at 1000 g/ha [6, 20]	pest or weed control at 1000 g/ha [7, 21]	pest or weed control at 1000 g/ha [8, 22]	other results
CCNCC(P(=O)(O)O)P(=O)(O)O [Compound 20]	150 nM	150 nM	–	–	–	–	–	–	–	pest or weed control at 1000 g/ha [1, 9]: 50%; pest or weed control at 1000 g/ha [3, 10]: 60%; pest or weed control at 1000 g/ha [4, 11]: 15%; pest or weed control at 1000 g/ha [5, 12]: 0%; pest or weed control at 1000 g/ha [6, 13]: 0%; pest or weed control at 1000 g/ha [7, 14]: 10%; pest or weed control at 1000 g/ha [8, 15]: 40%
CC1CCCN(CC(P(=O)(O)O)P(=O)(O)O)C1 (stereo not drawn) [Compound 21]	385 nM	385 nM	50%	30%	5%	0%	10%	30%	50%	–
CNCC(O)(P(=O)(O)O)P(=O)(O)O [Compound 23]	500000 nM	> 500000 nM	–	–	–	–	–	–	–	pest or weed control at 4000 g/ha [1, 9]: 0%; pest or weed control at 4000 g/ha [3, 10]: 0%; pest or weed control at 4000 g/ha [4, 11]: 0%; pest or weed control at 4000 g/ha [5, 12]: 0%; pest or weed control at 4000 g/ha [6, 13]: 0%; pest or weed control at 4000 g/ha [7, 14]: 0%; pest or weed control at 4000 g/ha [8, 15]: 0%
CCCCN(CCCC)CC(P(=O)(O)O)P(=O)(O)O [Compound 24]	190 nM	190 nM	85%	98%	10%	0%	5%	30%	98%	–
CNCC(P(=O)(O)O)P(=O)(O)O [Compound 25]	1680 nM	1680 nM	–	–	–	–	–	–	–	pest or weed control at 1000 g/ha [1, 9]: 100%; pest or weed control at 1000 g/ha [3, 10]: 100%; pest or weed control at 1000 g/ha [4, 11]: 85%; pest or weed control at 1000 g/ha [5, 12]: 98%; pest or weed control at 1000 g/ha [6, 13]: 90%; pest or weed control at 1000 g/ha [7, 14]: 100%; pest or weed control at 1000 g/ha [8, 15]: 100%
CC(NCC(P(=O)(O)O)P(=O)(O)O)c1ccccc1 (stereo not drawn) [Compound 26]	1430 nM	1430 nM	–	80%	–	–	10%	–	80%	SETVI percent control [1, 23]: 60%; CYPES percent control [4, 23]: 5%; ABUTH percent control [5, 23]: 20%; SINAR percent control [7, 23]: 40%
O=P(O)(O)C(CN1CCCCCC1)P(=O)(O)O [Compound 29]	360 nM	360 nM	60%	60%	0%	0%	15%	85%	60%	–

More lines, in order of falling IC50 ([2]; Table I), values ahead:

IC50 ([2]; Table I)	IC50 ([2]; Table II)	SMILES	pest or weed control at 1000 g/ha [1, 16]	pest or weed control at 1000 g/ha [3, 17]	pest or weed control at 1000 g/ha [4, 18]	pest or weed control at 1000 g/ha [5, 19]	pest or weed control at 1000 g/ha [6, 20]	pest or weed control at 1000 g/ha [7, 21]	pest or weed control at 1000 g/ha [8, 22]	other results
1410 nM	1410 nM	O=P(O)(O)C(CNCCc1ccccc1)P(=O)(O)O [Compound 28]	30%	5%	10%	5%	5%	50%	60%	–
1230 nM	1230 nM	CC(NCC(P(=O)(O)O)P(=O)(O)O)c1ccccc1 (stereo not drawn) [Compound 27]	–	–	–	–	–	–	–	SETVI percent control [1, 23]: 90%; ECHCG percent control [3, 23]: 90%; CYPES percent control [4, 23]: 75%; ABUTH percent control [5, 23]: 75%; IPOSS percent control [6, 23]: 5%; SINAR percent control [7, 23]: 100%; AVEFA percent control [8, 23]: 80%
1160 nM	1660 nM	CCOCCNCC(P(=O)(O)O)P(=O)(O)O [Compound 22]	20%	15%	0%	5%	5%	40%	0%	–
266 nM	266 nM	CC1CCN(CC(P(=O)(O)O)P(=O)(O)O)CC1 [Compound 30]	95%	90%	5%	5%	30%	100%	90%	–
